Results on 1 compound are retold here after PMC7997574, “Lead Optimization of Benzoxazolone Carboxamides as Orally Bioavailable and CNS Penetrant Acid Ceramidase Inhibitors” (Journal of Medicinal Chemistry, 2020).

SMILES strings stand for the structures. Values joined by “and” are separate entries in the source; they are usually repeats but may differ in a detail not shown here. Equal entries are not always repeated. Where two headings read alike, the source gives them in different places.

Data set [1] can be described thus: Plasma and brain concentrations in 4L;C* mice. The data set is classed as in vivo, mouse. To be noted: 1 h after last dose (day 14). The method, then: (§1) 4L;C* mice (C57BL/6 J/129SvEV) were randomly assigned to three treatment groups (N = 4–8 with mixed males and females) and dosed once a day i.p. with 90 or 30 mg kg^–1 of 22m or vehicle. Treatment started at 5 days of age for a duration of 14 days. The application volume was set to 10 μL per gram of body weight, and dosage was adjusted accordingly. Animals of all groups were sacrificed 1 h after the last dose, and the brain tissues and plasma were collected. The left brain containing cortex, cerebella, thalamus, and brainstem was analyzed for SphL levels by MS. Data were analyzed using the Student t test. The right brain containing cortex, cerebella, thalamus, and brainstem and plasma were analyzed for drug levels of 22m. All mice were housed under pathogen-free conditions in the animal facility, and animal experiment was performed according to the IACUC approved protocol (2018-0056) at Cincinnati Children’s Hospital Research Foundation. Wild Type (WT) (GALC+/+) and Twitcher (Twi) (GALC–/−) mice were genotyped by PCR as previously described.[58] Twi mice were randomly assigned to three treatment groups (N = 3 males + N = 3 females for each group) and dosed once a day i.p. with 90 or 30 mg kg^–122m or vehicle for a duration of 20 days. Treatment started at 10 days of age. The application volume was set to 10 μL per gram of body weight, and dosage was adjusted accordingly. Two groups (N = 3 males + N = 3 females for each group) of WT controls treated with vehicle or high dose (90 mg kg^–1) of 22m were also included in the study. Animals of all groups were sacrificed 1 h after the last dose, and the brain tissues and plasma were collected. The left brain containing cortex, cerebella, thalamus, and brainstem was analyzed for SphL levels by MS. Data were analyzed using the Student t test. The right brain containing cortex, cerebella, thalamus, and brainstem and plasma were analyzed for drug levels of 22m. All animal work in this study was performed in accordance with approved animal protocols from the Animal Care and Use Committee at the University of Illinois at Chicago.

A further data set concerns GalSph (d18:1). Kind of data set: Brain GalSph levels in Twitcher mice (Krabbe's disease model). The data set is classed as in vivo, mouse. To be noted: for reduction of GalSph (d18:1) levels in the brains: Twitcher mice; for GalSph(d18:1) change (Figure 8): brain. The method, then: as §1
Data set [2] is described as follows: In vitro mouse plasma protein binding (equilibrium dialysis). To be noted: read-out: Fp, u (%) plasma fraction unbounded. The data set is classed as in vitro ADME. The protocol:
Studies were performed by the DMPK Group at Shanghai ChemPartner Co., Ltd., using the equilibrium dialysis method. Values are the mean of two technical replicates.

The target of data set [3] is T1, AC (Homo sapiens, UniProt Q13510).
T1 sequence (Q13510 22-395): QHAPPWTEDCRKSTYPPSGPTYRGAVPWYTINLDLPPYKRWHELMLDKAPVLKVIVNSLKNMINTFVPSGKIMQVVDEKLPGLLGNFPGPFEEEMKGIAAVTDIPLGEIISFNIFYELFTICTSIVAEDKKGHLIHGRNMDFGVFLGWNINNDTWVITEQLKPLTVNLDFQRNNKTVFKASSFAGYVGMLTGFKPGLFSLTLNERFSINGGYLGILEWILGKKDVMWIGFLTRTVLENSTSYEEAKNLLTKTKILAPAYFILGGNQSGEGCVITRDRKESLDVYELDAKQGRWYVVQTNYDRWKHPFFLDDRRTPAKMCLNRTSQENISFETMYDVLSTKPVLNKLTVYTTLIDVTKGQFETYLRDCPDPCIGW
As to the kind of experiment: Kinetic studies on hAC-enriched lysates (Michaelis–Menten analysis, ki/KI). The data set is classed as biochemical. More on the design: expressed in transfected cells. To be noted: time-dependent inhibition of hAC. The method, then:
Assay conditions for the kinetic studies were the same as those described for the fluorogenic hAC assay. Enzyme-enriched lysate (2 μg) was incubated with the following concentrations of substrate Rbm14–12: 0.25, 0.5, 1, 2.5, 5, 10, 12.5, and 15 μM. Compound 22m was used at final concentrations of 100 and 400 nM. Initial velocities (V0) were determined and automatically fitted to the Michaelis–Menten equation to obtain the kinetic parameters (KM and Vmax). The graph is representative of two independent experiments, each performed in three technical replicates. Graphs and data analysis were performed using GraphPad Prism 5 software (GraphPad Software Inc., CA, USA).
hAC activity was measured as a function of reaction time in the presence of different concentrations of 22m. The apparent inactivation rate constant of hAC (kobs) was analyzed by nonlinear square fitting each data set to the pseudo-first-order rate equation Y = vi(1 – exp(−kobst))/kobs. Replotting of calculated kobs vs [22m] was made, and the kinetic parameter ki/KI was calculated by nonlinear square fitting data to the equation Y = kiI/(KI + I). The graphs are representative of two independent experiments, each performed in two technical replicates.

Data set [4] deals with T1, AC. As to the kind of experiment: EC50 determination in primary fibroblast cells from Krabbe's disease patients. It is filed as cell-based. Also on record: expressed in transfected cells. The method, then: Cells were plated in a 6-well plate. After 24 h, cells were treated with 22m at different concentrations for 2 h. Next, cells were washed with PBS, and cell pellets were washed, collected, and stored at −80 °C. Finally, cell pellets were lysed, and hAC activity in cell lysates was analyzed using the same biochemical fluorogenic assay as described for compound IC50 determination. Using this methodology, EC50 was determined to be 0.41 ± 0.1 μM. The EC50 value is a mean of two independent experiments, each performed in two technical replicates.

In the case of `CC(C)CNC(=O)n1c(=O)oc2cc(C3CCN(C)CC3)ccc21` [22m, N-Isobutyl-6-(1-methyl-4-piperidyl)-2-oxo-1,3-benzoxazole-3-carboxamide], the concentration at 1 h in data set [1] (4L;C* mice, 90 mg kg^–1 i.p., read-out: Cb, u (μM) brain unbounded concentration) was found to be 2.61 µM; in data set [1] (both sexes, 4L;C* (C57BL/6 J/129SvEV), mouse, brain, ip, 30 mg kg^–1, 4L;C* mice, 30 mg kg^–1 i.p., read-out: Cb (μM) brain concentration) it was 110 µM; in data set [1] (both sexes, 4L;C* (C57BL/6 J/129SvEV), mouse, brain, ip, 30 mg kg^–1, 4L;C* mice, 30 mg kg^–1 i.p., read-out: Cb, u (μM) brain unbounded concentration) it was 0.77 µM; in data set [1] (both sexes, 4L;C* (C57BL/6 J/129SvEV), mouse, brain, ip, 90 mg kg^–1, 4L;C* mice, 90 mg kg^–1 i.p., read-out: Cb (μM) brain concentration) it was 373 µM; in data set [1] (both sexes, 4L;C* (C57BL/6 J/129SvEV), mouse, brain, ip, 90 mg kg^–1, 4L;C* mice, 90 mg kg^–1 i.p., read-out: Cb, u (μM) brain unbounded concentration) it was 2.6 µM; in data set [1] (both sexes, 4L;C* (C57BL/6 J/129SvEV), mouse, plasma, ip, 30 mg kg^–1, 4L;C* mice, 30 mg kg^–1 i.p., read-out: Cp (μM) plasma concentration), 3.08 µM. For the same compound, the concentration at 1 h in data set [1] (both sexes, 4L;C* (C57BL/6 J/129SvEV), mouse, plasma, ip, 30 mg kg^–1, 4L;C* mice, 30 mg kg^–1 i.p., read-out: Cp,u (μM) plasma unbounded concentration) was 0.42 µM; in data set [1] (both sexes, 4L;C* (C57BL/6 J/129SvEV), mouse, plasma, ip, 90 mg kg^–1, 4L;C* mice, 90 mg kg^–1 i.p., read-out: Cp (μM) plasma concentration), 16.8 µM; in data set [1] (both sexes, 4L;C* (C57BL/6 J/129SvEV), mouse, plasma, ip, 90 mg kg^–1, 4L;C* mice, 90 mg kg^–1 i.p., read-out: Cp,u (μM) plasma unbounded concentration), 2.32 µM. Further, the “reduction of GalSph (d18:1) levels in the brains” value with GalSph (d18:1) (30 mg kg^–1 i.p. once daily for 20 days) stood at 41%; in the data set with GalSph (d18:1) (90 mg kg^–1 i.p. once daily for 20 days) it was 72%. Besides, the “GalSph(d18:1) change (Figure 8)” value in the data set on GalSph (d18:1) (Twi 30 mg/kg i.p.) was -41%; in the data set with GalSph (d18:1) (Twi 90 mg/kg i.p.), -72%. Moreover, in data set [2], the fraction unbound was determined as 0.138. The compound further came in with a ki at AC [3] of 0.15 min^–1. The ki/KI at AC [3] is 0.02 μM^–1 min^–1 and 0.02±0.001 μM^–1 min^–1. For the same compound, the EC50 at AC [4] (primary fibroblast cells from Krabbe's disease patients, 2 h incubation) worked out at 0.41 ± 0.1 µM; at AC [4] (primary fibroblast cells of Krabbe's patients, Figure S1), 0.4 ± 0.1 µM.
